Assay results: patent publication US20250243180A1, “TARGETED PROTEIN DEGRADATION” (Monte Rosa Therapeutics AG, priority 2023, published 2025)
Read-outs that look alike come from different tables or passages of the source.

Target: NEK7 (Homo sapiens (Human), UniProt Q8TDX7+Q96SW2)
Experiment: NEK7 NanoBiT degradation assay in Cal51 NEK7 NanoBiT cell line
Type: cell-based
Settings: Cal51 NEK7 NanoBiT cells, 24 hours; for Dmax: CAL-51
Procedure: Cal51 NEK7 NanoBiT cell line was generated via CRISPR Knock-In of the HiBiT tag in NEK7 gene and stable infection with a lentivirus carrying LgBiT protein. The cell line was generated in house. For the experiment, cells were plated in 384-well white flat bottom plates (Corning, 3570BC) at 2500 cells per well using Multiflo (BioTek/Agilent) and in 25 μl volume in DMEM experimental medium: DMEM (DMEM, high glucose, HEPES, no phenol red (ThermoFisher Scientific, 21063029) supplemented with 10% FBS (Corning, 35-075-CV), 1% Penicillin/Streptomycin ((ThermoFisher Scientific, 15140-122), and 1% Endurazine (Nano-Glo Endurazine Live Cell Substrate (Promega, N2571)). Cells were incubated for 16 hours at 37° C., 5% CO2 before compound addition. For dose response determination, 2.5 nL of a compound at different concentrations (stock compound concentration range: 10 mM to 0.5 μM, final concentration range inside cell plate: 1 μM to 0.05 nM) were dispensed into the plate using an Echo® 650 liquid handling device (Backman Coulter/Labcyte). Cells were incubated at 37° C., 5% CO2 for 24 hours and then signal was read on a Pherastar FSX using “LUM plus” optic module with 4095 gain and measurement interval time 0.2 seconds.
Analysis was performed in Genedata Screener (Genedata, Basel, CH). Luminescence response (R) was calculated by the formula: response=100*(S−N)/(P−N) where S is the signal of the well, N and P the mean negative and positive control values respectively of the same plate. The luminescence response was then fitted in Genedata using a 4-parameter antagonist logistic fit (hill slope unconstrained, EC50>0, top/bottom unconstrained).

[1] = NEK7 degradation, read-out: NanoBiT Dmax
[2] = NEK7 degradation, read-out: NanoBiT DC50

Chain of NEK7 (Q8TDX7 whole entry): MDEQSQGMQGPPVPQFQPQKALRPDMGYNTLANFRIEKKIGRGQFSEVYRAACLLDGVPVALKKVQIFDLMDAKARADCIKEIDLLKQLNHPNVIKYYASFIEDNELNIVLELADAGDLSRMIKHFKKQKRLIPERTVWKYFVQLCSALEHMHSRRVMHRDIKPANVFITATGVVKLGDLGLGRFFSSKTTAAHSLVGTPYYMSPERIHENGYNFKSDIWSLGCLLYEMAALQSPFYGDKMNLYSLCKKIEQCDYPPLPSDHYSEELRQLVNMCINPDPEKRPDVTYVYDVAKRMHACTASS
Chain of NEK7 (Q96SW2 whole entry): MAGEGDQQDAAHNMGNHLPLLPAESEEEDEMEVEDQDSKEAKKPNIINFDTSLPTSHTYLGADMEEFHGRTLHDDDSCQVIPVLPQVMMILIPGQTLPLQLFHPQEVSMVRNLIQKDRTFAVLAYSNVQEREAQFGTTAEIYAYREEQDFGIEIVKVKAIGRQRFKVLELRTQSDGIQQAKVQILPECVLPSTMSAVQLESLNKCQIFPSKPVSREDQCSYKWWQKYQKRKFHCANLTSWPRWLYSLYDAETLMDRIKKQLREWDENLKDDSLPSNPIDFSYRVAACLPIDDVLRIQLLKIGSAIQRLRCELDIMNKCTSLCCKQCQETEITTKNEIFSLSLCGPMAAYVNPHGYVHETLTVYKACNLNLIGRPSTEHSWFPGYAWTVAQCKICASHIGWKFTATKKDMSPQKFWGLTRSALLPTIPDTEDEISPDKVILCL
Chain of NEK7 (Q16531 2-1140 partner): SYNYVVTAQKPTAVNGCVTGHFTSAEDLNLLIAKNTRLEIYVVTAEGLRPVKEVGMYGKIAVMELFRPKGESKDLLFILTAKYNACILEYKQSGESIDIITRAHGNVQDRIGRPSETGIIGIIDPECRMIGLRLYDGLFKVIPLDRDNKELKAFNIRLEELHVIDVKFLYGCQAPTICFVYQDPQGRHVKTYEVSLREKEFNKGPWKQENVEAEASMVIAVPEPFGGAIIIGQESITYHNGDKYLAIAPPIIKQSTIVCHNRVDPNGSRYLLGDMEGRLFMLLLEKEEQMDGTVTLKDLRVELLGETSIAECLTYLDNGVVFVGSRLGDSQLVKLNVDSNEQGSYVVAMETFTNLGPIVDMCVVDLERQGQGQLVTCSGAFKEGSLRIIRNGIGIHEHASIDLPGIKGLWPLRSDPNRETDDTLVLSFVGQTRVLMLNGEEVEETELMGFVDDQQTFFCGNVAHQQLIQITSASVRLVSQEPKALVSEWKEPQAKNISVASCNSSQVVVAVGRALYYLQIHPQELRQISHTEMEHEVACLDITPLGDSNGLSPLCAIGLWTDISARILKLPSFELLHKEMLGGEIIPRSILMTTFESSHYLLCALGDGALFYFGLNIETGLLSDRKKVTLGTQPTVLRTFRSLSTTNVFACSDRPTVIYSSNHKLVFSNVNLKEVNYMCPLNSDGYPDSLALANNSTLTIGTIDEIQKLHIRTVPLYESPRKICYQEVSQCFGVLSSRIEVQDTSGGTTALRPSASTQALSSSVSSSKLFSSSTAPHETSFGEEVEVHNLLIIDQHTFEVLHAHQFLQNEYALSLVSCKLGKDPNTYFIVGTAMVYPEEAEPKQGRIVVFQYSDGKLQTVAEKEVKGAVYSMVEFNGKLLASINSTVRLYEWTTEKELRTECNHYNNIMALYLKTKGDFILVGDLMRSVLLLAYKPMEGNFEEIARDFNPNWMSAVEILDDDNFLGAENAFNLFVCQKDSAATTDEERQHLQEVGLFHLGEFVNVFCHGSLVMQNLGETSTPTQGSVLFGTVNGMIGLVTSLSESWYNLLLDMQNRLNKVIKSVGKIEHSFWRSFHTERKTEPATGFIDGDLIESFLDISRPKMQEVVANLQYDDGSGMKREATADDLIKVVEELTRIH

SMILES | Dmax (read-out: NEK7 NanoBiT Dmax) [%] | Dmax [1] [%] | DC50 (read-out: NEK7 NanoBiT DC50) [nM] | DC50 [2] [nM]
CC(C)(C(=O)NCc1ccc(C2CCC(=O)NC2=O)c(Cl)c1)c1ccc(OC(F)(F)F)cc1 (centres unmarked) [Compound 100] | 91 | > 75 | 45 | ≤ 100
CC(C)(C(=O)NCc1ccc(C2CCC(=O)NC2=O)c(Cl)c1)c1ccc(Cl)cc1 (centres unmarked) [Compound 101] | 95 | > 75 | 5 | ≤ 100
CC1(C(=O)NCc2ccc(C3CCC(=O)NC3=O)c(Cl)c2)CCc2ccccc2C1 (centres unmarked) [Compound 102] | 86 | > 75 | 51 | ≤ 100
CC(C)(C(=O)NCc1ccc(C2CCC(=O)NC2=O)c(Cl)c1)c1cccc(C(F)(F)F)n1 (centres unmarked) [Compound 104] | 80 | > 75 | 122 | 100 to 1000
CC(C)(C(=O)NCc1ccc(C2CCC(=O)NC2=O)c(Cl)c1)c1ccc(Cl)nc1 (centres unmarked) [Compound 105] | 84 | > 75 | 58 | ≤ 100
Cc1noc(C)c1C(C)(C)C(=O)NCc1cc(Cl)c(C2CCC(=O)NC2=O)c(Cl)c1 (centres unmarked) [Compound 112] | 40 | ≤ 50 | 1000 | > 1000
CC(C)(C(=O)NCc1cc(Cl)c(C2CCC(=O)NC2=O)c(Cl)c1)c1cscn1 (centres unmarked) [Compound 113] | 61 | 50 to 75 | 151 | 100 to 1000
CC(C)(C(=O)NCc1cc(Cl)c(C2CCC(=O)NC2=O)c(Cl)c1)c1cncs1 (centres unmarked) [Compound 114] | 69 | 50 to 75 | 52 | ≤ 100
CC(C)(C(=O)NCc1cc(Cl)c(C2CCC(=O)NC2=O)c(Cl)c1)c1cc[nH]n1 (centres unmarked) [Compound 115] | 76 | > 75 | 43 | ≤ 100
Cc1cc(C(C)(C)C(=O)NCc2cc(Cl)c(C3CCC(=O)NC3=O)c(Cl)c2)nn1C (centres unmarked) [Compound 116] | 80 | > 75 | 20 | ≤ 100
Cn1ccc(C(C)(C)C(=O)NCc2cc(Cl)c(C3CCC(=O)NC3=O)c(Cl)c2)n1 (centres unmarked) [Compound 117] | 74 | 50 to 75 | 51 | ≤ 100
CC(C)(C(=O)NCc1cc(Cl)c(C2CCC(=O)NC2=O)c(Cl)c1)c1c[nH]cn1 (centres unmarked) [Compound 118] | 48 | ≤ 50 | 760 | 100 to 1000
Cn1cnnc1C(C)(C)C(=O)NCc1cc(Cl)c(C2CCC(=O)NC2=O)c(Cl)c1 (centres unmarked) [Compound 119] | 45 | ≤ 50 | 1000 | > 1000
CC(C)(C(=O)NCc1cc(Cl)c(C2CCC(=O)NC2=O)c(Cl)c1)c1ccc(CC#N)nn1 (centres unmarked) [Compound 214] | 49 | ≤ 50 | 635 | 100 to 1000
